According to patent publication US20200375919A1, “BONE GRAFT MATERIAL WITH 4-HEXYLRESORCINOL THAT AFFECTS BONE FORMATION” (MANTIZ LOGITECH CO., LTD., priority 2019, published 2020):

What was measured:
human primary cells = experiment: MTS measuring of cytotoxicity and cell viability; assay type: cell-based; conditions: FIG. 1
Excerpt: MTS Measuring Method of Cytotoxicity and Cell Viability
Mitochondrial NADH-dehydrogenase forms formazan having a color by reducing a tetrazolium salt such as MTS. Therefore, as the number of cells which express dehydrogenase, i.e., living cells is proportional to formation of formazan, the living cells can be quantified.
After seeding human primary cells, adhering the seeded-human primary cells to a cell plate, and treating the seeded-human primary cells adhered to the cell plate with an MTS Cell Proliferation Assay Kit (ab197010, UK, abcam) every 24 hours and 48 hours, resulting materials were confirmed by using a wavelength of 490 nm.

osteoblast-like cells [1] = experiment: Alkaline phosphatase activity (early-stage osteoblastic differentiation); assay type: cell-based, human; conditions: 0.0194% (=10^-4M) compared with 3% and control; seventh day; FIG. 2
Experimental: Method of Measuring Cell Culture and Alkaline Phosphatase Activities
(§1) In vitro tests were performed by using osteoblast-like cells through a human primary cell culture. A cell survival environment was progressed by supplementing DMEM (Dulbecco Modified Eagle's Medium)-high glucose (PAA Laboratories, Pasching, Austria) and 20% fetal bovine serum (PAA, Canada) and comprising 1% penicillin/streptomycin (100×), and media were exchanged every other day. Resulting materials were confirmed on the seventh day of differentiation experiments by using alkaline phosphatase (Sigma, St. Louis, Mo., USA).

osteoblast-like cells [2] = experiment: Alizarin Red S staining (late osteoblast differentiation, calcium accumulation); assay type: cell-based, human; conditions: 0.0194% (=10^-4M) compared with 3% and control; FIG. 3
Experimental: Method of Measuring Bone Differentiation Degrees by Dyeing Calcium Accumulation of Bone-Differentiated Cells (Alizarin Red S Staining)
as §1, with “experiments.” for “experiments by using alkaline phosphatase (Sigma, St. Louis, Mo., USA).”

ALP, Runx2, Osx, Ocn = experiment: mRNA expression of osteoblast differentiation markers; assay type: cell-based; conditions: 0.0194% (=10^-4M) compared with 3% or control; FIGS. 4A to 4D
ALP and Runx2 = experiment: Western blot protein level; assay type: cell-based; conditions: 0.0194% compared with 3% or control; FIG. 5
osteoclasts = experiment: Differentiation of osteoclasts (TRAP staining); assay type: cell-based, human; conditions: FIGS. 6A and 6B
Experimental: Method of Measuring Differentiation Abilities of Osteoclasts (TRAP Staining)
as §1, with “osteoclasts” for “osteoblast-like cells”, “bone marrow derived macrophages” for “primary cell”, “once a” for “every other”, “fifth” for “seventh”, “through TRAP staining.” for “by using alkaline phosphatase (Sigma, St. Louis, Mo., USA).”

CCCCCCc1ccc(O)cc1O [4-hexylresorcinol]
cell proliferation, low versus high concentration (human primary cells; 0.0194% compared with 3%): cell proliferation is more active | cell viabilities versus control (human primary cells; 4-hexylresorcinol concentrations of 3% and 0.0194% (=10^-4M)): higher than a control | ALP activity (osteoblast-like cells [1]): high ALP activity | calcification (Alizarin Red S staining) (osteoblast-like cells [2]): high calcification | mRNA expression level of ALP, Runx2, Osx, Ocn (ALP, Runx2, Osx, Ocn): larger expression level | ALP and Runx2 protein expression levels (western blot) (ALP and Runx2): higher | effect on differentiation of osteoclasts, low versus high concentration (osteoclasts; 0.0194% compared with 3%): more excellent | differentiation of osteoclasts (osteoclasts; treating 4-hexylresorcinol, fifth day): inhibited
